Measurements taken from patent US7651979B2, “Coordination complexes, and methods for preparing by combinatorial methods, assaying and using the same” (priority 2000, dated 2010).

Columns and labels:
BlaM HeLa cells [1] = format: cell-based, human; conditions: for response of independently synthesized compounds on the BlaM HeLa assay: pure compounds made by non-combinatorial means; for ratio of green to blue fluorescence with increasing concentration: increasing concentrations, FIG. 7, twenty-eight hours
Text: Another example of a subject assay is termed the CCF2/AM assay. The CCF2/AM dye is an effective assay for the presence of β-lactamase, and thus may be used as a sensor for its transcription. See, for example, U.S. Pat. No. 5,955,604 and WO 9630540. This screen in based on a cellular response that is relatively unique to cisplatin. […] See Sandman et al., Chem. Bio. 6:541-51 (1999). […] In addition, the rapid inhibition of transcription, which occurs prior to apoptosis, may be evaluated over a short period of time. In the BlaM HeLa cell line used herein, the inhibition of transcription coupled with the half-life of ambient β-lactamase results in a one-day screening protocol.
To screen drug candidates for transcription inhibition activity, genetically modified HeLa cells developed by Aurora Biosciences were exposed to the products from the above parallel reactions. BlaM HeLa cells have been permanently transfected with a vector encoding the 29-kD plasmid encoded TEM-1 β-lactamase from E. coli. This enzyme is the product of the ampicillin resistance gene Amp^r, and is not normally expressed in mammalian cells.
BlaM HeLa cells were grown up from stock provided by Aurora Biosciences using standard cell culture techniques. This cell line was grown in 10 cm plates by using a modified Dulbecco's Modified Eagle Medium supplemented with 10% fetal bovine serum, 2 mM L-glutamine, 1.0 mM sodium pyruvate, and 0.1 mM non-essential amino acids. Bacterial growth was inhibited through intermittent exposure to […], and selection of the BlaM cells was maintained through the weekly administration of 800 μg/mL G418 (geneticin).
For plate reader-based experiments, HeLa cells were distributed into black, clear-bottom, 96-well plates (Corning). Nearly confluent 10 cm plates (60-70%) were trypsinized and distributed (100 μL) into the 96-well plates, and allowed to adhere and grow for approximately 18 h. Cells were then washed with 100 μL PBS and provided with fresh media prior to treatment. After treatment, the cells were exposed to the CCF2/AM dye for one hour, and measured for fluorescence on the fmax plate reader. The cellular response to platinum compounds was determined by taking the ratio of the absolute value of measured fluorescence at 530 nm (green) over the absolute value of measured fluorescence at 460 nm (blue). This response is corrected for the background of the microplate.
Concentration and time-dependent studies were conducted with cisplatin and other pure platinum compounds to determine the response of the cells to platinum chemotherapeutics. For the library screen, cells were exposed to 30 μM of platinum product from the reactions for 28 hours. 72 reactions were screened manually per day, with each compound measured in triplicate. […] After the exposure period the cells were worked up using the CCF2/AM dye protocol, and hits were determined by their response related to that of a cisplatin standard at the same concentration. Initial hits were then rescreened for dose dependent toxicity, over a range from 0 to 75 μM concentrations.

BlaM HeLa cells [2] = test: Northern blotting of RNA from BlaM HeLa cells; format: cell-based, human; conditions: 30 μM, 12 hours, FIG. 5
Procedure: Two 10 cm plates of BlaM HeLa cells were grown to 60-70% confluence, and one treated with 30 μM cisplatin for twelve hours. After this treatment, RNA was extracted from the cells on each plate using an Ambion kit and quantified by UV-visible spectroscopy. The RNA was electrophoresed on an agarose-formaldehyde gel, transferred to a nylon membrane, and crosslinked with a Stratalinker UV device by using standard procedures. This blot was probed with ^32P labeled BlaM fragment from pcDNA-3 (Aurora Biosciences) and 7S RNA from pUC(Amp), and quantified by a Biorad phosphorimager apparatus.

[Cl][Pt]([Cl])([NH]C1CCC1)[NH]C1CCC1 [bis-cyclobutylamine species, cis-(cyclobutylamine)2PtCl2]
response of independently synthesized compounds on the BlaM HeLa assay (BlaM HeLa cells [1]): positive response

O=[N+]([O-])[O-].[Ag+] [silver nitrate]
transcription inhibition response (BlaM HeLa cells [1]; in media, same concentration as cisplatin (~30 μM), FIG. 9): does not give a transcription inhibition response

Cc1cccnc1N.N.[Cl][Pt][Cl] [cis-ammine(2-amino-3-picoline)dichloroplatinum(II)]
response of independently synthesized compounds on the BlaM HeLa assay (BlaM HeLa cells [1]): positive response

N.N.[Cl][Pt][Cl] [cisplatin, cis-diamminedichloroplatinum(II)]
transcription of both the BlaM vector and control 7S RNA (BlaM HeLa cells [2]): decrease in transcription | response (ratio of fluorescence at 530 nm (green) over 460 nm (blue)) in initial screen (BlaM HeLa cells [1]; 30 μM, 28 hours, triplicate, response above 0.092 considered a hit): 0.092 | ratio of green to blue fluorescence with increasing concentration (BlaM HeLa cells [1]): definite increase | time at which cell response peaked (BlaM HeLa cells [1]; time dependence, FIG. 8): approximately 20 hours

CC(C)N.CC(C)N.[Cl-].[Cl-].[Pt+2] [cis-(isopropylamine)2PtCl2]
response of independently synthesized compounds on the BlaM HeLa assay (BlaM HeLa cells [1]): positive response

[NH2][Pt]([Cl])([Cl])[NH]C1CCC1 [ammine-cyclobutylamine complex, cis-ammine(cyclobutylamine)PtCl2]
response of independently synthesized compounds on the BlaM HeLa assay (BlaM HeLa cells [1]): positive response

N.N.[Cl][Pt][Cl] [trans-DDP, trans-diamminedichloroplatinum(II)]
ratio of green to blue fluorescence with increasing concentration (BlaM HeLa cells [1]): no increase | cell response over time (BlaM HeLa cells [1]; time dependence, any of the times measured, FIG. 8): no cell response
